# Values quoted from earlier work as cited in US9969773B2, “Polymers, pharmaceutical compositions and methods of synthesizing the same” (NEW YORK UNIVERSITY, priority 2014, dated 2018).
compound,measurement,value
"CC[C@H](C)[C@H](NC(=O)[C@H](CCC(=O)O)NC(=O)[C@H](CO)NC(=O)[C@@H](NC(=O)[C@@H](N)CO)C(C)C)C(=O)N[C@@H](CCC(N)=O)C(=O)N[C@@H](CC(C)C)C(=O)N[C@@H](CCSC)C(=O)N[C@@H](Cc1cnc[nH]1)C(=O)N[C@@H](CC(N)=O)C(=O)N[C@@H](CC(C)C)C(=O)NCC(=O)N[C@@H](CCCCN)C(=O)N[C@@H](Cc1cnc[nH]1)C(=O)N[C@@H](CC(C)C)C(=O)N[C@@H](CC(N)=O)C(=O)N[C@@H](CO)C(=O)N[C@@H](CCSC)C(=O)N[C@@H](CCC(=O)O)C(=O)N[C@@H](CCCN=C(N)N)C(=O)N[C@H](C(=O)N[C@@H](CCC(=O)O)C(=O)N[C@@H](Cc1c[nH]c2ccccc12)C(=O)N[C@@H](CC(C)C)C(=O)N[C@@H](CCCN=C(N)N)C(=O)N[C@@H](CCCCN)C(=O)N[C@@H](CCCCN)C(=O)N[C@@H](CC(C)C)C(=O)N[C@@H](CCC(N)=O)C(=O)N[C@@H](CC(=O)O)C(=O)N[C@H](C(=O)N[C@@H](Cc1cnc[nH]1)C(=O)N[C@@H](CC(N)=O)C(=O)N[C@@H](Cc1ccccc1)C(=O)O)C(C)C)C(C)C [PTH (1-34), parathyroid hormone (1-34)]",half-life in serum,~5 min
